Assay results taken from patent publication US8715706B2, “Methods and devices for delivery of pharmaceutical agents within orifices of the body” (RDD Pharma, Ltd., priority 2009, dated 2014).

What was measured:
anal sphincter [1] = assay: Rectal manometry of resting anal pressure after Nifedipine from localized drug release system; assay type: in vivo, human; details: 90 minutes after insertion, N 6
Procedure: Six healthy individuals were selected for measuring resting anal pressure as a function of different doses of Nifedipine administered using a localized drug release system as per an embodiment of the present invention.
All dimensions are when empty before filling with API. When tested in a water bath, substantially all the API exited the shell within 40 minutes.
The measurements were conducted using 4 mg, 12 mg or 24 mg of Nifedipine as API, respectively. A Nifedipine (API) solution was prepared at 45 degrees Celsius in a heated water bath. A 22 gauge dispensing needle (Techon Systems) was inserted through the tail and into the coated shell of the drug release system. While the shell was evacuated of air, one milliliter of Nifedipine compound was delivered to the shell via a syringe attached to the needle. A clip was used to seal the tail and the system was left until the Nifedipine became solid.
A rectal manometry was used to measure resting anal pressure at baseline (before insertion) and 90 minutes after insertion of each shell with the relevant amount of API in a volume of one milliliter. The time of release of the API (API release time) ranged between 20-25 minutes (the variation due to changes in the normal human body temperature). FIGS. 12A and 12C graphically display the results of this study.

anal canal = details: topical, cited from earlier work
anal sphincter [2] = assay: Rectal manometry of resting and squeezing anal pressure tonus after Phenylephrine from localized drug release system; assay type: in vivo, human; parameters: Squeeze Rectal ref max / Squeeze Abs ref mean: unit not given here
Procedure: The measurements conducted included resting anal pressure tonus and squeezing anal pressure tonus.
The measurements were conducted using 40 mg and 80 mg of Phenylephprine as API, respectively. A Phenylephprine (API) solution was prepared at 45 degrees Celsius in a heated water bath. A 22 gauge dispensing needle (Techon Systems) was inserted through the tail and into the coated shell of the drug release system. While the shell was evacuated of air, one milliliter of Phenylephprine compound was delivered to the shell via a syringe attached to the needle. A clip was used to seal the tail and the system was left until the Phenylephrine became solid.
A rectal manometer was used to measure resting anal pressure tonus and squeezing anal pressure tonus at baseline (before insertion), […] amount of API in a volume of one milliliter. The API release time ranged between 20-25 minutes (the variation due to changes in the normal human body temperature). The results are shown below in Table III (40 mg) and Table IV (80 mg). Values shown in bold lettering in Table IV represent statistically significant difference (p<0.05) from baseline value, using paired t-test.

[3] = pK studies, rectal rate of absorption using drug release system; details: rectally, drug release system of Example 1, FIGS. 14 and 15
Excerpt: Accordingly, it is intended to embrace all such alternatives, modifications and variations that fall within the spirit and broad scope of the appended claims.

COC(=O)C1=C(C)NC(C)=C(C(=O)OC)C1c1ccccc1[N+](=O)[O-] [Nifedipine]
Resting Max Pressure Rectal Ref, Max (anal sphincter [1]; 4 mg): 151.0 | Resting Max Pressure Rectal Ref, Mean (anal sphincter [1]; 4 mg): 111.6 | Resting Max Pressure Rectal Ref, Median (anal sphincter [1]; 4 mg): 111.5 | Resting Max Pressure Rectal Ref, Min (anal sphincter [1]; 4 mg): 72.2 | Resting Mean Pressure Rectal Ref, Max (anal sphincter [1]; 4 mg): 124.0 | Resting Mean Pressure Rectal Ref, Mean (anal sphincter [1]; 4 mg): 94.2 | Resting Mean Pressure Rectal Ref, Median (anal sphincter [1]; 4 mg): 92.3 | Resting Mean Pressure Rectal Ref, Min (anal sphincter [1]; 4 mg): 57.7 | Resting Max Pressure Rectal Ref, Max (anal sphincter [1]; 12 mg): 187.1 | Resting Max Pressure Rectal Ref, Mean (anal sphincter [1]; 12 mg): 105.9 | Resting Max Pressure Rectal Ref, Median (anal sphincter [1]; 12 mg): 88.0 | Resting Max Pressure Rectal Ref, Min (anal sphincter [1]; 12 mg): 79.8 | Resting Mean Pressure Rectal Ref, Max (anal sphincter [1]; 12 mg): 89.4 | Resting Mean Pressure Rectal Ref, Mean (anal sphincter [1]; 12 mg): 75.0 | Resting Mean Pressure Rectal Ref, Median (anal sphincter [1]; 12 mg): 73.2 | Resting Mean Pressure Rectal Ref, Min (anal sphincter [1]; 12 mg): 58.9 | Resting Max Pressure Rectal Ref, Max (anal sphincter [1]; 24 mg): 153.7 | Resting Max Pressure Rectal Ref, Mean (anal sphincter [1]; 24 mg): 90.2 | Resting Max Pressure Rectal Ref, Median (anal sphincter [1]; 24 mg): 79.7 | Resting Max Pressure Rectal Ref, Min (anal sphincter [1]; 24 mg): 58.8 | Resting Mean Pressure Rectal Ref, Max (anal sphincter [1]; 24 mg): 80.0 | Resting Mean Pressure Rectal Ref, Mean (anal sphincter [1]; 24 mg): 63.9 | Resting Mean Pressure Rectal Ref, Median (anal sphincter [1]; 24 mg): 64.4 | Resting Mean Pressure Rectal Ref, Min (anal sphincter [1]; 24 mg): 51.7

CNC[C@H](O)c1cccc(O)c1 [Phenylephrine]
resting pressure (anal canal; 30% and 40%, compared with placebo): significant increase in resting pressure at both time points compared with placebo | median resting pressure (anal canal; concentrations of 10% and 20%): modest increase in median resting pressure, this was not statistically significant | Length HPV (anal sphincter [2]; 40 mg, 90 min): 2.2 cm | Length Verge to center (anal sphincter [2]; 40 mg, 90 min): 0.8 cm | Resting Abs ref Max (anal sphincter [2]; 40 mg, 90 min): 109.0 mm Hg | Resting Abs ref Mean (anal sphincter [2]; 40 mg, 90 min): 95.0 mm Hg | Resting rectal ref Max (anal sphincter [2]; 40 mg, 90 min): 105.1 mm Hg | Resting rectal ref Mean (anal sphincter [2]; 40 mg, 90 min): 91.2 mm Hg | Squeeze Abs ref mean (anal sphincter [2]; 40 mg, 90 min): 348.7 | Squeeze Rectal ref max (anal sphincter [2]; 40 mg, 90 min): 332.4 | Length HPV (anal sphincter [2]; 40 mg, 180 min): 2.1 cm | Length Verge to center (anal sphincter [2]; 40 mg, 180 min): 0.5 cm | Resting Abs ref Max (anal sphincter [2]; 40 mg, 180 min): 127.8 mm Hg | Resting Abs ref Mean (anal sphincter [2]; 40 mg, 180 min): 93.1 mm Hg | Resting rectal ref Max (anal sphincter [2]; 40 mg, 180 min): 124.0 mm Hg | Resting rectal ref Mean (anal sphincter [2]; 40 mg, 180 min): 89.2 mm Hg | Squeeze Abs ref mean (anal sphincter [2]; 40 mg, 180 min): 336.5 | Squeeze Rectal ref max (anal sphincter [2]; 40 mg, 180 min): 318.8 | Length HPV (anal sphincter [2]; 40 mg, 240 min): 2.5 cm | Length Verge to center (anal sphincter [2]; 40 mg, 240 min): 0.8 cm | Resting Abs ref Max (anal sphincter [2]; 40 mg, 240 min): 94.2 mm Hg | Resting Abs ref Mean (anal sphincter [2]; 40 mg, 240 min): 82.5 mm Hg | Resting rectal ref Max (anal sphincter [2]; 40 mg, 240 min): 88.7 mm Hg | Resting rectal ref Mean (anal sphincter [2]; 40 mg, 240 min): 77.0 mm Hg | Squeeze Abs ref mean (anal sphincter [2]; 40 mg, 240 min): 376.7 | Squeeze Rectal ref max (anal sphincter [2]; 40 mg, 240 min): 363.3 | mean resting anal pressure (anal sphincter [2]; 80 mg in 1 cc volume (8% concentration)): significant increase in the mean resting anal pressure | Length HPV (anal sphincter [2]; 80 mg, 90 min): 2.2 cm | Length Verge to center (anal sphincter [2]; 80 mg, 90 min): 0.5 cm | Resting Abs ref Max (anal sphincter [2]; 80 mg, 90 min): 139.9 mm Hg | Resting Abs ref Mean (anal sphincter [2]; 80 mg, 90 min): 107.6 mm Hg | Resting rectal ref Max (anal sphincter [2]; 80 mg, 90 min): 136.5 mm Hg | Resting rectal ref Mean (anal sphincter [2]; 80 mg, 90 min): 104.2 mm Hg | Squeeze Abs ref mean (anal sphincter [2]; 80 mg, 90 min): 364.1 | Squeeze Rectal ref max (anal sphincter [2]; 80 mg, 90 min): 352.4 | Length HPV (anal sphincter [2]; 80 mg, 180 min): 2.6 cm | Length Verge to center (anal sphincter [2]; 80 mg, 180 min): 0.7 cm | Resting Abs ref Max (anal sphincter [2]; 80 mg, 180 min): 111.8 mm Hg | Resting Abs ref Mean (anal sphincter [2]; 80 mg, 180 min): 90.8 mm Hg | Resting rectal ref Max (anal sphincter [2]; 80 mg, 180 min): 109.2 mm Hg | Resting rectal ref Mean (anal sphincter [2]; 80 mg, 180 min): 88.2 mm Hg | Squeeze Abs ref mean (anal sphincter [2]; 80 mg, 180 min): 350.7 | Squeeze Rectal ref max (anal sphincter [2]; 80 mg, 180 min): 337.6 | Length HPV (anal sphincter [2]; 80 mg, 270 min): 2.5 cm | Length Verge to center (anal sphincter [2]; 80 mg, 270 min): 0.9 cm | Resting Abs ref Max (anal sphincter [2]; 80 mg, 270 min): 96.1 mm Hg | Resting Abs ref Mean (anal sphincter [2]; 80 mg, 270 min): 83.1 mm Hg | Resting rectal ref Max (anal sphincter [2]; 80 mg, 270 min): 92.5 mm Hg | Resting rectal ref Mean (anal sphincter [2]; 80 mg, 270 min): 79.5 mm Hg | Squeeze Abs ref mean (anal sphincter [2]; 80 mg, 270 min): 340.4 | Squeeze Rectal ref max (anal sphincter [2]; 80 mg, 270 min): 321.2 | anal sphincter pressures at resting and at squeezing conditions (anal sphincter [2]; 40 and 80 mg): increased in a dose-dependent manner

Glucagon
rate of absorption [3]: relatively quickly absorbed
